Series [1] relates to sciatic nerve of Sarm1 KO mice. Description: Local application to sciatic nerve using Surgifoam wrap, Sarm1 KO mice. The conditions noted are these: 500 mM 3-AP, seven days. Type of series: in vivo, mouse. The protocol: (§1) Mice: All experiments were performed in accordance with the protocols of the Institutional Animal Care and Use Committee of Washington University in St. Louis and the guidelines for the Care and Use of Laboratory Animals of the National Institutes of Health. Mice were housed on a 12 hr light dark cycle with less than 5 mice per cage and with water and food available at all times. Male and female mice were used for all experiments. 5-week old mice were used for IP injection and 5-6-month old mice were used for Surgifoam wrap treatments. Sarm1 KO mice were a gift from Macro Colonna at Department of Pathology and Immunology, Washington University School of Medicine in St. Louis, and C57BL/6 mice were purchased from Jackson Laboratory.
(§2) IP injection and local application of 3-AP to sciatic nerve using Surgifoam wrap 5 week-old mice were used for IP injection experiment. Suitable skin incisions were made at the mid-thigh level of […], followed by a small incision or blunt dissection to the muscle fascia to permit retraction of the biceps femoris and gluteus superficialis muscles to expose the sciatic nerve. The nerve was carefully separated from surrounding connective tissue and then a 0.5×1 cm piece of sterile absorbable hemostatic material (Surgifoam) soaked in 500 mM 3-AP (or saline control) was wrapped around the sciatic nerve. […]

Series [2] relates to SARM1. Briefly: cADPR levels in sciatic nerve after IP injection, WT mice. In kind it is in vivo, mouse. Particulars: 275 mg/kg IP, 3 days post-administration. The protocol: as §1
(§3) Metabolite measurement using LC-MS/MS: Lyophilized samples were reconstituted with 50 μl of 5 mM ammonium formate and centrifuged at 12,000 g for 10 min. Cleared supernatants were transferred to sample vials. Serial dilutions of standards for each metabolite in 5 mM ammonium formate were used for calibration. […] Raw data were acquired and quantified using MassHunter Workstation software version B.08.00 for 6400 Series Triple Quadrupole (Agilent Technologies, Santa Clara, CA). […]

Series [3] has as its system Sarm1 KO DRG neurons. Description: Metabolite measurement by LC-MS/MS in Sarm1 KO DRG neurons. Particulars: 3-AP-treated Sarm1 KO neurons. Type of series: cell-based, mouse. The protocol:
(§4) DRG neuron culture: Mouse DRG culture was as described previously. Mouse DRGs were dissected at embryonic day 13.5. Approximately 50 ganglia were collected from each embryo and dissociated in 0.05% Trypsin containing 0.02% EDTA (Gibco) at 37° C. for 20 min. The DRG neurons were washed 3 times with DRG culture medium after incubation with Trypsin. Cells were seeded as spot cultures in 96-tissue culture plates (Corning) coated with 0.1 mg/ml poly-D-lysine and 0.1 mg/ml laminin. They were cultured in Neurobasal (Gibco) containing 2% B27 (Invitrogen), 100 ng/ml 2.5S NGF (Harlan Bioproducts), and 1 μM 5-fluoro-2′-deoxyuridine/1 μM uridine. The culture medium was exchanged with fresh DRG culture medium every 2-3 days. Lentiviruses were added 3 days after seeding (DIV3).
Metabolite measurement using LC-MS/MS: Lyophilized samples were reconstituted with 50 μl of 5 mM ammonium formate and centrifuged at 12,000 g for 10 min. Cleared supernatants were transferred to sample vials. Serial dilutions of standards for each metabolite in 5 mM ammonium formate were used for calibration. […] Raw data were acquired and quantified using MassHunter Workstation software version B.08.00 for 6400 Series Triple Quadrupole (Agilent Technologies, Santa Clara, CA).

The subject of series [4] is Sarm1 KO mice. Description: Survival after IP injection of 3-AP, Sarm1 KO mice. Type of series: in vivo, mouse. The protocol:
as §1, §2

The test system of series [5] is rabbits, dogs, mice and rats. Particulars: early studies; could be blocked by administration of Nam; cited from earlier work.
Series [6] deals with WT DRG neurons. Briefly: Metabolite measurement by LC-MS/MS in WT DRG neurons. Type of series: cell-based, mouse. The protocol:
as §4
Metabolite measurement using LC-MS/MS: Lyophilized samples were reconstituted with 50 μl of 5 mM ammonium formate and centrifuged at 12,000 g for 10 min. Cleared supernatants were transferred to sample vials. Serial dilutions of standards for each metabolite in 5 mM ammonium formate were used for calibration. HPLC-mass spectrometry analysis was performed on an Agilent 1290 Infinity II liquid chromatography system (Agilent Technologies, Santa Clara, CA) with a flexible pump, multisampler, sample cooler and an MCT containing an Atlantis T3 column (2.1×150 mm, 3 μm) and VanGuard guard cartridge (2.1 mm×5 mm, 3 μm) (Waters, Milford, MA), coupled to an Agilent 6470 Triple Quad mass spectrometer (Agilent Technologies, Santa Clara, CA). The mobile phase (0.15 ml/min) was 5 mM ammonium formate in water (A) and 100% methanol (B). The column was equilibrated with 0% B, maintained after injection for 2 min, then a linear gradient to 20% B applied over 4 min. The column was then ramped to 50% B over 2 min, and held at 50% for 2 min, then reverted back to 0% B over the next 5 min and allowed to re-equilibrate at 0% B for 9 min. The total run time was 24 min per sample. […] Raw data were acquired and quantified using MassHunter Workstation software version B.08.00 for 6400 Series Triple Quadrupole (Agilent Technologies, Santa Clara, CA).

The test system of series [7] is Sarm1 KO DRG neurons. Description: Axon degeneration and neuronal death in cultured Sarm1 KO DRG neurons. Particulars: escalating doses, even at 1 mM. In kind it is cell-based, mouse. The protocol:
as §4
Quantification of axon degeneration: After culture for 7 days, axotomy was performed by cutting DRG axons manually with a razor blade. After axon transection, bright-field images of distal axons were taken using the Operetta automated imaging system (PerkinElmer). Axon degeneration indexes were calculated from these bright-field images using ImageJ (NIH). The axon degeneration index was calculated as the ratio of fragmented axon areas as previously described. Indexes were calculated as the average of six fields per well.

Series [8] relates to sciatic nerve of WT mice. Briefly: Local application to sciatic nerve using Surgifoam wrap, WT mice. Type of series: in vivo, mouse. The protocol: as §1
(§5) IP injection and local application of 3-AP to sciatic nerve using Surgifoam wrap 5 week-old mice were used for IP injection experiment. Suitable skin incisions were made at the mid-thigh level of 5 week-old mice, followed by a small incision or blunt dissection to the muscle fascia to permit retraction of the biceps femoris and gluteus superficialis muscles to expose the sciatic nerve. The nerve was carefully separated from surrounding connective tissue and then a 0.5×1 cm piece of sterile absorbable hemostatic material (Surgifoam) soaked in 500 mM 3-AP (or saline control) was wrapped around the sciatic nerve. Wound clips, and/or tissue adhesive were used to close the incision.
Tissue processing: Tibial nerves from both control and 3-AP treated sides was dissected out 7 days post-surgery. The distal 2 cm portion of the nerve was fixed in 4% paraformaldehyde for 1 hr at room temperature, then moved to 30% sucrose and embedded in OCT for cryosectioning in the following day. Immunocytochemistry was performed on tibial cryosections using NF200 (Sigma N4142, 1:1000) and MBP (Millipore MAB386, 1:100) followed by anti-rabbit-Alexa488 (1:500) and anti-rat-Cy3 (1:500). The proximal 2 cm portion of the sciatic nerves were fixed in 3% Glutaraldehyde for processing and embedding in epoxy/plastic. Toluidine blue thick sections (400-600 nm thickness) were cut and axon counting was performed using binary image analysis.

Series [9] concerns WT mouse embryonic dorsal root ganglion (DRG) neurons. Briefly: MTT assay of neuronal death in WT DRG neurons. In kind it is cell-based. The conditions noted are these: 12 hr treatment. The protocol:
as §4
(Tetrazolium assays rely on reduction of a dye to a coloured formazan, in cell work by metabolically active cells.)

The subject of series [10] is Sarm1 KO DRG neurons expressing W103A, R157A or K193R SARM1 mutants or wildtype SARM1. Description: Axon degeneration in Sarm1 KO DRG neurons infected with lentivirus expressing wildtype or allosteric pocket mutant SARM1. In kind it is cell-based, mouse. The conditions noted are these: 3-AP 300 μM. The protocol:
as §4
Lentivirus production: Lentivirus production was performed as described previously. HEK 293T cells were seeded with the density of 1×10^6 in 35 mm well tissue culture plate (Corning). […]
Quantification of axon degeneration: After culture for 7 days, axotomy was performed by cutting DRG axons manually with a razor blade. […] Axon degeneration indexes were calculated from these bright-field images using ImageJ (NIH). The axon degeneration index was calculated as the ratio of fragmented axon areas as previously described. Indexes were calculated as the average of six fields per well.

In series [11] the test system is Sarm1 KO mice. Description: cADPR levels in sciatic nerve after IP injection, Sarm1 KO mice. The conditions noted are these: similar IP injections. Type of series: in vivo, mouse. The protocol: as §1, §3
The subject of series [12] is WT mouse embryonic dorsal root ganglion (DRG) neurons. Briefly: Axon degeneration in cultured WT DRG neurons. Type of series: cell-based. The conditions noted are these: WT DRG neurons. The protocol: as §4
[…] After axon transection, bright-field images of distal axons were taken using the Operetta automated imaging system (PerkinElmer). Axon degeneration indexes were calculated from these bright-field images using ImageJ (NIH). The axon degeneration index was calculated as the ratio of fragmented axon areas as previously described. Indexes were calculated as the average of six fields per well.

In series [13] the test system is WT mice. Description: Survival after IP injection of 3-AP, WT mice. In kind it is in vivo, mouse. The protocol:
as §1, §5

This is an account of results in US12390482B2, “Neurolytic agents and methods of using and identifying same” (priority 2021, dated 2025).

`CC(=O)c1cccnc1` [3-AP, 3-acetylpyridine]: in series [1], the “axon loss in treated nerve” value was “well protected from axon loss”. In addition, the “increase of cADPR levels in the sciatic nerve” value in series [2] is listed as 3-4 fold. The “changes in the levels of NAD+, ATP, or cADPR” value in [3] is reported as “no significant changes”. Moreover, the lethality entry is “no lethality” in series [4] (275 mg/kg IP, n=5) and “rapidly lethal” in series [13] (500 mg/kg IP). In addition, the survival and phenotype entry in [4] (up to 500 mg/kg IP) is “survive and have no obvious phenotype”. For the same compound, the “toxicity on administration to animals” value in [5] was “severe neurotoxicity and death”. Further, in series [6] (3-AP 300 μM, WT neurons), the “NAD+ and ATP levels” value is “Substantial NAD^+ and ATP depletion”. Besides, the “decline in NMN” value in series [6] (within four hours, p<0.001, n=3) was “greater than 50%”. Besides, the “effect on axon degeneration and neuronal death” value in series [7] was “no effect”. Moreover, the “axon loss in tibial nerve distal to treatment site” value in series [8] (WT mice, 500 mM 3-AP, seven days, vs contralateral or saline-treated nerve) was “dramatic loss of axons”. In addition, the “gait after local treatment” value in series [8] (WT mice, Surgifoam soaked in 500 mM 3-AP on sciatic nerve) is given as “rapidly develop an abnormal gait”. Also, the “axon damage in the proximal sciatic nerve” value in series [8] (WT mice, proximal to site of 500 mM 3-AP application) is on record as “no detectable axon damage”. Besides, in series [8] (local application to peripheral nerve), the “systemic harm after local application” value is “without apparent systemic harm”. In addition, in series [9], the “neuronal death (MTT assay)” value is “causes neuronal death at similar doses”. The “axons of Sarm1 KO neurons expressing SARM1 W103A, R157A or K193R” value in [10] (allosteric pocket mutants) was “remain intact”. Moreover, the “axon degeneration in Sarm1 KO neurons expressing wildtype SARM1” value in series [10] (lentiviral wildtype SARM1) is given as “restores 3-AP-induced axon degeneration”. The “cADPR levels in the sciatic nerve” value in [11] was “no alteration in cADPR levels”. Also, in series [12], the “doses at which axons rapidly degenerate at a rate similar to that after transection” value is recorded as “above 250 μM”. In addition, the “dose at which axons begin to degenerate slowly” value in [12] (axonal integrity at multiple time points) came out at 250 µM. In addition, the survival result in [13] (275 mg/kg IP) is on record as “generally survive”; in [13] (400 mg/kg IP) it was “die rapidly”.
